{"source": "the NIST ThermoML archive (doi:10.1016/j.fluid.2013.02.001)", "conditions": "Crystal; Phase equilibration", "note": "Numbers after ± are expanded uncertainties."}
{"smiles": "O=C([O-])CCP(=O)(O)c1ccccc1.[Na+]", "note": "[monosodium 3-(hydroxyphenylphosphinyl)propanoate]", "values": [{"measurement": "Normal melting temperature", "result": "231 ± 0.7", "unit": "°C"}]}
